Data taken from US20250304537A1 (Repare Therapeutics Inc., priority 2022, published 2025).
Like-named read-outs stand apart in the source and are kept apart here.

Columns and labels:
[1] = system: PKMYT1 (CDK1 pThr14) in FUOV1 cells; test: PKMYT1 cell-based activity assay, CDK1 pThr14 AlphaLISA in FUOV1 cells; conditions: read-out: FUOV-1 CDK1 pThr14 IC50
Method in brief: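 IC50 was derived from AlphaLISA signal (excitation 680 nm, emission 615 nm) for phospho-Thr14 CDK1 in lysates. The detection antibodies were rabbit anti-pThr14 and mouse anti-total CDK1, each at 5 nM. FUOV1 ovarian cells were exposed to compound for 2 hours before lysis.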

[2] = target: recombinant human Myt1 (full length PKMYT1) (Homo sapiens (Human), UniProt Q99640); test: Recombinant human Myt1 kinase assay (ADP-Glo); format: biochemical; conditions: 10 μM ATP
Method in brief: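 ADP-Glo luminescence measured ATP hydrolysis by recombinant full-length PKMYT1 (18 nM) after 60 min at 30 °C with 10 μM ATP. Compounds in 0.5% DMSO were added to the enzyme 15 min before ATP, at 22 °C, in HEPES/MgCl2/MnCl2 buffer. IC50 and percent maximal inhibition were derived.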

Sequence of recombinant human Myt1 (full length PKMYT1) (Q99640 whole entry): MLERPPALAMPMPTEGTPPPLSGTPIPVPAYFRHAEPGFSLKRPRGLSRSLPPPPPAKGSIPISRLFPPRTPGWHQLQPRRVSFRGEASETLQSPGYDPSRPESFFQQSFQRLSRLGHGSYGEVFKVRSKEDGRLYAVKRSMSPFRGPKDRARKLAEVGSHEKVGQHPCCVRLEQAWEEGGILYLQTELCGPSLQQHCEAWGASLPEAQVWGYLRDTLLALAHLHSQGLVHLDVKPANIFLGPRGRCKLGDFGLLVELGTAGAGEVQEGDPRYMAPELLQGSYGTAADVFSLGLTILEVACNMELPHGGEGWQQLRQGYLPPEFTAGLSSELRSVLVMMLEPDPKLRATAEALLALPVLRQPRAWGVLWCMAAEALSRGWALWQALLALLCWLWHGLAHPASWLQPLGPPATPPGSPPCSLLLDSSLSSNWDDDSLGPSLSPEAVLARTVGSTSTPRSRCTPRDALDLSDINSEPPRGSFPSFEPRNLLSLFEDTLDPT

IC50 ([1]; 2 h, 2 h compound incubation) [nM] | IC50 [2] [nM] | IC50 ([1]; 2 h, 2 h incubation) [nM] | IC50 ([1]; 2 h, 2 hours with compound) [nM] | IC50 ([1]; 2 h incubation) [nM] | Structure (SMILES)
65 | 7 |  |  |  | COC(C)(C)C(=O)Nc1ccccc1-c1nc(C(N)=O)c(N)c(-c2c(C)ccc3[nH]ncc23)n1 [Compound 420]
 | 46 | 3760 |  |  | Cc1ccc2[nH]ncc2c1-c1nc(-c2ccc3c(cnn3C)c2)nc(C(N)=O)c1N [Compound 114]
 | 5 | 204 |  |  | Cc1ccc2[nH]ncc2c1-c1cc(-c2cccc(O[C@H](C)c3ncccn3)n2)nc(C(N)=O)c1N [Compound 254]
 | 11 | 193 |  |  | Cc1ccc2[nH]ncc2c1-c1cc(-c2cccc(OCc3ccncn3)n2)nc(C(N)=O)c1N [Compound 244]
 | 5 | 85 |  |  | Cc1ccc2[nH]ncc2c1-c1cc(-c2cccc(OCc3nccn3C)n2)nc(C(N)=O)c1N [Compound 249]
 | < 3 |  | 10 |  | Cc1ccc2[nH]ncc2c1-c1nc(-c2cccnc2N[C@@H]2CCOCC2(C)C)nc(C(N)=O)c1N [Compound 829]
 | 28 | 774 |  |  | CNc1ccccc1-c1nc(C(N)=O)c(N)c(-c2c(C)ccc3[nH]ncc23)n1 [Compound 365]
1030 | 38 |  |  |  | Cc1ccc2[nH]ncc2c1-c1nc(-c2cc(C(F)(F)F)ccc2NC(=O)C2(C)CC2)nc(C(N)=O)c1N [Compound 445]
 | 25 | 1220 |  |  | Cc1ccc(O)cc1-c1nc(-c2cccc(Cl)c2)nc(C(N)=O)c1N [Compound 29]
 | 19 | 462 |  |  | Cc1ccc2[nH]ncc2c1-c1nc(-c2cccc(N3CCOCC3)c2)nc(C(N)=O)c1N [Compound 102]
22 | 21 |  |  |  | Cc1ccc2[nH]ncc2c1-c1nc(-c2ccc(F)cc2Nc2ncccc2Cl)nc(C(N)=O)c1N [Compound 611]
 | 4 |  | 147 |  | Cc1ccc2[nH]ncc2c1-c1nc(-c2cn(C)nc2NC(C)C)nc(C(N)=O)c1N [Compound 904]
1330 | 27 |  |  |  | Cc1ccc2[nH]ncc2c1-c1c(N)c(C(N)=O)cc2c1oc1ccccc12 [Compound 418, 3-amino-4-(5-methyl-1H-indazol-4-yl)dibenzo[b,d]furan-2-carboxamide]
 | 5 | 134 |  |  | Cc1ccc2[nH]ncc2c1-c1cc(-c2cccc(OCc3ccnnc3)n2)nc(C(N)=O)c1N [Compound 326]
 | 7 | 169 |  |  | Cc1ccc(O)c(C)c1-c1cc(-c2cccc(N3CCOCC3)c2)nc(C(N)=O)c1N [Compound 42]
 | 11 | 495 |  |  | Cc1ccc2[nH]ncc2c1-c1cc(-c2cccnc2)nc(C(N)=O)c1N [Compound 107]
 | 17 |  | 502 |  | Cc1ccc2[nH]ncc2c1-c1nc(-c2cccc3c2NCCO3)nc(C(N)=O)c1N [Compound 852]
 | 18 | 2410 |  |  | Cc1ccc(O)c(C)c1-c1cc(C2CC2)nc(C(N)=O)c1N [Compound 54]
104 | 7 |  |  |  | Cc1ccc2[nH]ncc2c1-c1nc(-c2ccccc2NC(C)(C)C)nc(C(N)=O)c1N [Compound 451]
 | 5 | 444 |  |  | COCCNc1nccc(-c2cc(-c3c(C)ccc4[nH]ncc34)c(N)c(C(N)=O)n2)n1 [Compound 214, 3-amino-6-(2-((2-methoxyethyl)amino)pyrimidin-4-yl)-4-(5-methyl-1H-indazol-4-yl)picolinamide]
 | 4 |  | 147 |  | Cc1ccc2[nH]ncc2c1-c1nc(-c2cn(C)nc2NC2CC(F)(F)C2)nc(C(N)=O)c1N [Compound 896]
317 | 12 |  |  |  | Cc1ccc2[nH]ncc2c1-c1nc(-c2ccccc2NC2CCC(F)(F)CC2)nc(C(N)=O)c1N [Compound 453]
 | 6 | 137 |  |  | Cc1ccc2[nH]ncc2c1-c1cc(-c2ccnc(OCCc3nccs3)n2)nc(C(N)=O)c1N [Compound 313]
 | 22 | 1450 |  |  | Cc1ccc2[nH]ncc2c1-c1cc(-c2cncs2)nc(C(N)=O)c1N [Compound 85]
 | 14 | 473 |  |  | Cc1ccc2[nH]ncc2c1-c1cc(-c2ccnc(OCc3cccnc3)n2)nc(C(N)=O)c1N [Compound 164]
 | 3 | 21 |  |  | CC[C@H](COc1nccc(-c2cc(-c3c(C)ccc4[nH]ncc34)c(N)c(C(N)=O)n2)n1)OC (atropisomer, axis not shown) [Compound 333]
 | 400 | 1180 |  |  | CC[C@@H](COc1nccc(-c2cc(-c3c(C)ccc4[nH]ncc34)c(N)c(C(N)=O)n2)n1)OC (atropisomer, axis not shown) [Compound 334]

IC50 ([1]; 2 h, 2 h compound incubation) [nM] | IC50 [2] [nM] | IC50 ([1]; 2 h, 2 h incubation) [nM] | IC50 ([1]; 2 h, 2 hours with compound) [nM] | IC50 ([1]; 2 h incubation) [nM] | Structure (SMILES)
 | 6 | 351 |  |  | COC(C)(C)COc1nccc(-c2cc(-c3c(C)ccc4[nH]ncc34)c(N)c(C(N)=O)n2)n1 [Compound 327]
 | 3 |  |  | 113 | Cc1cccc(-c2cc(-c3c(C)ccc(O)c3C)c(N)c(C(N)=O)n2)n1 [Compound 91]
 | 6 | 137 |  |  | CC(=O)Nc1cccc(-c2cc(-c3c(C)ccc(O)c3C)c(N)c(C(N)=O)n2)c1 [Compound 49]
 | 10 | 943 |  |  | Cc1ccc(O)cc1-c1nc(-c2ccnc(N)c2)nc(C(N)=O)c1N [Compound 4]
780 | 17 |  |  |  | Cc1ccc2[nH]ncc2c1-c1nc(-c2cccc3c2NC(=O)C3(F)F)nc(C(N)=O)c1N [Compound 395]
60 | 7 |  |  |  | NC(=O)c1nc(-c2ccccc2NC(=O)C2(C(F)(F)F)CC2)nc(-c2c(Cl)ccc3[nH]ncc23)c1N [Compound 411]
44 | 9 |  |  |  | CC1(C(=O)Nc2cc(F)c(F)cc2-c2nc(C(N)=O)c(N)c(-c3c(Cl)ccc4[nH]ncc34)n2)CC1 [Compound 459]
 | 6 | 19 |  |  | CC(=O)Nc1ccccc1-c1nc(C(N)=O)c(N)c(-c2c(C)ccc3[nH]ncc23)n1 [Compound 320]
 | 11 | 319 |  |  | Cc1ccc(O)cc1-c1nc(-c2cccc(N3CCOCC3)c2)nc(C(N)=O)c1N [Compound 27]
283 | 4 |  |  |  | Cc1ccc2[nH]ncc2c1-c1nc(-c2cccnc2N[C@@H]2CCO[C@@H](C)C2)nc(C(N)=O)c1N [Compound 605]
 | 58 |  |  | 945 | Cc1ccc2[nH]ncc2c1-c1cc(-c2ccnnc2)nc(C(N)=O)c1N [Compound 86]
397 | 10 |  |  |  | Cc1ccc2[nH]ncc2c1-c1nc(-c2cccnc2Nc2ccccc2F)nc(C(N)=O)c1N [Compound 610]
1230 | 18 |  |  |  | Cc1ccc2[nH]ncc2c1-c1nc(-c2cc(F)c(F)cc2NC(=O)C2(C(F)(F)F)CCC2)nc(C(N)=O)c1N [Compound 470]
 | 11 | 1820 |  |  | Cc1ccc(O)c(C)c1-c1cc(-c2cccc(C(F)(F)F)n2)nc(C(N)=O)c1N [Compound 60]
6 | 4 |  |  |  | Cc1ccc2[nH]ncc2c1-c1nc(-c2ccc(F)cc2Nc2ncccc2C#N)nc(C(N)=O)c1N [Compound 613]
23 | 7 |  |  |  | Cc1ccc2[nH]ncc2c1-c1nc(-c2ccccc2Nc2ncccn2)nc(C(N)=O)c1N [Compound 449, 5-amino-6-(5-methyl-1H-indazol-4-yl)-2-(2-(pyrimidin-2-ylamino)phenyl)pyrimidine-4-carboxamide]
40 | 4 |  |  |  | Cc1ccc2[nH]ncc2c1-c1nc(-c2cc(F)ccc2NCC(F)F)nc(C(N)=O)c1N [Compound 421]
138 | 14 |  |  |  | Cc1ccc2[nH]ncc2c1-c1nc(-c2cc(F)c(F)cc2NC2CC(F)(F)C2)nc(C(N)=O)c1N [Compound 475]
1390 | 29 |  |  |  | Cc1ccc2[nH]ncc2c1-c1nc(-c2cccnc2Nc2cccc(C(F)(F)F)c2)nc(C(N)=O)c1N [Compound 608]
370 | 3 |  |  |  | COCCNc1ccccc1-c1nc(C(N)=O)c(N)c(-c2c(C)ccc3[nH]ncc23)n1 [Compound 464]
 | 2 | 198 |  |  | Cc1ccc2[nH]ncc2c1-c1cc(-c2cccc(O[C@@H]3CCOC3)n2)nc(C(N)=O)c1N (atropisomer, axis not shown) [Compound 227, (R)-5-amino-4-(5-methyl-1H-indazol-4-yl)-6′-(((R)-tetrahydrofuran-3-yl)oxy)-[2,2′-bipyridine]-6-carboxamide]
 | 8 | 752 |  |  | Cc1ccc2[nH]ncc2c1-c1cc(-c2cccc(OCc3cnccn3)n2)nc(C(N)=O)c1N [Compound 250]
 | 7 | 369 |  |  | Cc1ccc2[nH]ncc2c1-c1cc(-c2cccc(OCCN3CCOCC3)n2)nc(C(N)=O)c1N [Compound 185]
 | 7 | 507 |  |  | Cc1ccc2[nH]ncc2c1-c1cc(-c2cccc(OCc3cncnc3)n2)nc(C(N)=O)c1N [Compound 262]
 | 22 | 1370 |  |  | Cc1ccc2[nH]ncc2c1-c1nc(-c2cccc(C#N)c2)nc(C(N)=O)c1N [Compound 131, 5-amino-2-(3-cyanophenyl)-6-(5-methyl-1H-indazol-4-yl)pyrimidine-4-carboxamide]
10 | 4 |  |  |  | Cc1cccnc1Nc1ncccc1-c1nc(C(N)=O)c(N)c(-c2c(C)ccc3[nH]ncc23)n1 [Compound 622]
158 | 6 |  |  |  | Cc1ccc2[nH]ncc2c1-c1nc(-c2cccc(F)c2NC(=O)C2(C)CC2)nc(C(N)=O)c1N [Compound 456]
